Where a name gives a salt, the structure may show the parent alone.
Target: T1, AXL (Homo sapiens, UniProt P30530)
T1 construct: purchased Promega
T1 sequence (P30530 26-894): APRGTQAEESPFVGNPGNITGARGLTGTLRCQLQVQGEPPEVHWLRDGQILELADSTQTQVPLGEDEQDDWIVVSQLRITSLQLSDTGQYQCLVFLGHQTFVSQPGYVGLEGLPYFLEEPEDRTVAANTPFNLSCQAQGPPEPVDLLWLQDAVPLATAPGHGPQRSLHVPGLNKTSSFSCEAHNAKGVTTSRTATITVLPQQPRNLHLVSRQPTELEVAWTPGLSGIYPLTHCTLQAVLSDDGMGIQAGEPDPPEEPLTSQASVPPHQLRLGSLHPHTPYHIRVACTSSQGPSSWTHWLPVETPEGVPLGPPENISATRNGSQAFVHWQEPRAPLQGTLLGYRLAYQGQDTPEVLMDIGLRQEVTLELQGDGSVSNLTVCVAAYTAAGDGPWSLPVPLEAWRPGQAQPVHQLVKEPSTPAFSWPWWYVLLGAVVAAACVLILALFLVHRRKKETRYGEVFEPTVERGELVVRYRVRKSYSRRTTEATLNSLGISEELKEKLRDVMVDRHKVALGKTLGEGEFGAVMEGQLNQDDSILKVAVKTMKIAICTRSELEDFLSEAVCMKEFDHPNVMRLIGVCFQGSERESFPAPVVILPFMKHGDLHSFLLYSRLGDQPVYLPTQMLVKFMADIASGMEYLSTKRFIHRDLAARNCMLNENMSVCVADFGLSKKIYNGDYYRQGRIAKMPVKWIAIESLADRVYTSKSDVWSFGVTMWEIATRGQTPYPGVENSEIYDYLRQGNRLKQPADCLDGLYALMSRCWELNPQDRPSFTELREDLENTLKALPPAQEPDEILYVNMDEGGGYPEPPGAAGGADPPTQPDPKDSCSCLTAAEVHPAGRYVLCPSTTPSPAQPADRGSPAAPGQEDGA
Experiment: Assay of AXL inhibitory activity in vitro (Promega AXL Kinase Enzyme System, ADP-Glo)
Type: biochemical
Settings: 50 μmol/L ATP, 30° C., 60 minutes
Experimental: AXL Kinase Enzyme System (kinase system) was purchased from Promega. Envision multi-label Analyzer (PerkinElmer).
The enzyme, substrate, ATP and inhibitors were diluted using the buffer solution in the kit.
The assay was carried out in duplicate. 1 μl of the inhibitors of each concentration gradient, 2 μl of the AXL enzyme (6 ng), and a 2 μl mixture of the substrate and ATP (50 μmol/L ATP, 0.2 μg/μL Axltide) were added to the microplate. […] After the reaction was completed, 5 μL of ADP-Glo reagent was added to each well. The system was further reacted at 30° C. for 40 minutes. After the reaction was completed, 10 μL of kinase detection reagent was added to each well and reacted at 30° C. for 30 minutes. The chemiluminescence was then read by the PerkinElmer Envision multi-label analyzer with an integration time of 0.5 seconds.
The original data was converted into an inhibition rate, and the IC50 value can be obtained by four-parameter curve fitting.

CCc1nc(C(N)=O)c(Nc2ccc(N3CCC4(CCN(C)CC4)CC3)c(OC)c2)nc1NC1CCOCC1 [Trifluoroacetate salt of compound A, reference compound]
IC50: 5.76 nM
